Structures are written as SMILES.

The source of these data is patent publication US5756488A, “Composition for improving calcium metabolism” (Kuraray Co., Ltd., priority 1995, dated 1998).

Data set [1] has as its target T1, vitamin D-binding protein (Rattus norvegicus, UniProt P04276).
T1 construct: from tissue; host or cells: serum of vitamin D-deficient rat, diluted 1:10000, protein not purified
T1 sequence (P04276 17-476): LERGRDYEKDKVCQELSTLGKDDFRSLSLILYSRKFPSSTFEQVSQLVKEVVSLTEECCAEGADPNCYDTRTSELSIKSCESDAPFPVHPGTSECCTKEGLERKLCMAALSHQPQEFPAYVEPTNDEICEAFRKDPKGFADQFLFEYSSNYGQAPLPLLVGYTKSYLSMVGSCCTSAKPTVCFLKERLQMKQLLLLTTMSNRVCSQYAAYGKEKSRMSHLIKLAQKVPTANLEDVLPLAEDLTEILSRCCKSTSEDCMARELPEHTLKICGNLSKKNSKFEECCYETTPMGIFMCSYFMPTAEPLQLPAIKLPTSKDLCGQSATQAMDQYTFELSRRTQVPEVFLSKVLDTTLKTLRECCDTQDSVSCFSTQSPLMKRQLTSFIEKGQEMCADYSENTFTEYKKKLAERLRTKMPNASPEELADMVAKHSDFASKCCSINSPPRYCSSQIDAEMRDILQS
Briefly: Assay of affinity for vitamin D-binding protein (displacement of tritium-labeled 25-hydroxyvitamin D3, serum of vitamin D-deficient rat). Conditions: ratio of ED50 with control = 1, for Compounds 1, 2 and 3 30% replacement values were used. As to the method: Assay of Affinity for Vitamin D-Binding Protein
The serum of vitamin D-deficient rat was diluted 1:10000 with 3.5 mM barbiturate buffer solution (pH 8.6) containing 0.13 M NaCl. […] Then, 500 μl of the diluted solution of vitamin D deficient rat serum was added to each culture tube, which was then subjected to vortex stirring. After incubation at 4° C. for 1 hour, 250 μL of DCC suspension was added and vortex-stirred. Each of the culture tubes was allowed to stand for 15 minutes at 4° C., and centrifuged at 3000 rpm at 4° C. for 10 minutes.

Another data set is described as follows: Acute toxicity tests. The conditions noted are these: in vivo.
Data set [2] deals with 1,25-dihydroxyvitamin D3 receptor. The conditions noted are these: from the literature; cited from earlier work.
Data set [3] has as its system vitamin D-binding protein. Conditions: from the literature; cited from earlier work.

As for `C=C1/C(=C\C=C2/CCC[C@]3(C)[C@@H]([C@@H](C)[C@H](C)CCC(C)(C)O)CC[C@@H]23)C[C@@H](O)C[C@@H]1O` [Compound 1, (20S,22R)-22-methyl-1α,25-dihydroxyvitamin D3], the “Affinity for vitamin D-binding protein relative to 1α,25-dihydroxyvitamin D3” value in data set [1] is 1/500 and lowest affinity; in data set [1] (listed as (20S,22R)-22-methyl-1α,25-dihydroxyvitamin D3) it was “one five-hundredth and low”. Also, the “Toxicity in acute toxicity tests” value in the data set “Acute toxicity tests” was “low toxicity”.
Turning to `C=C1/C(=C\C=C2/CCC[C@]3(C)[C@@H]([C@H](C)[C@@H](C)CCC(C)(C)O)CC[C@@H]23)C[C@@H](O)C[C@@H]1O` [Compound 4, (20R,22S)-22-methyl-1α,25-dihydroxyvitamin D3], the “Affinity for vitamin D-binding protein relative to 1α,25-dihydroxyvitamin D3” value in data set [1] is 2/3.
As to `C=C1/C(=C\C=C2/CCC[C@]3(C)[C@@H]([C@H](C)[C@H](C)CCC(C)(C)O)CC[C@@H]23)C[C@@H](O)C[C@@H]1O` [Compound 3, (20R,22R)-22-methyl-1α,25-dihydroxyvitamin D3], the “Affinity for vitamin D-binding protein relative to 1α,25-dihydroxyvitamin D3” value in data set [1] is listed as 1/220.
For the compound `C=C1/C(=C\C=C2/CCC[C@]3(C)[C@@H]([C@H](C)OCCC(C)(C)O)CC[C@@H]23)C[C@@H](O)C[C@@H]1O` [22-oxa-1,25-dihydroxyvitamin D3], the “Affinity for the D3 receptor relative to 1,25-dihydroxyvitamin D3” value in data set [2] is reported as “one-eighth”. Also, in data set [3], the “Affinity for vitamin D-binding protein relative to 1,25-dihydroxyvitamin D3” value is reported as “about one six-hundredth”.
As to `C=C1/C(=C\C=C2/CCC[C@]3(C)[C@@H]([C@@H](C)[C@@H](C)CCC(C)(C)O)CC[C@@H]23)C[C@@H](O)C[C@@H]1O` [Compound 2, (20S,22S)-22-methyl-1α,25-dihydroxyvitamin D3], the “Affinity for vitamin D-binding protein relative to 1α,25-dihydroxyvitamin D3” value in data set [1] was 1/500.
